Test results as given in patent US20120101083A1, “S1P1 AGONISTS COMPRISING A BICYCLIC N-CONTAINING RING” (GLAXO GROUP LIMITED, priority 2009, published 2012).
pEC50: −log10 of the molar value. Where a name gives a salt, the structure may show the parent alone.

Experiments:
[1] = molecular target: T1, S1P1 receptor (S1P1 expressing RH7777 membranes) (Homo sapiens, UniProt P21453); assay: S1P1 GTPγS assay; assay type: biochemical; conditions: tested in one of the above S1P1 assays (two GTPγS formats)
T1 construct: expressed in transfected cells; host or cells: RH7777 cells (membranes)
T1 sequence (P21453 whole entry): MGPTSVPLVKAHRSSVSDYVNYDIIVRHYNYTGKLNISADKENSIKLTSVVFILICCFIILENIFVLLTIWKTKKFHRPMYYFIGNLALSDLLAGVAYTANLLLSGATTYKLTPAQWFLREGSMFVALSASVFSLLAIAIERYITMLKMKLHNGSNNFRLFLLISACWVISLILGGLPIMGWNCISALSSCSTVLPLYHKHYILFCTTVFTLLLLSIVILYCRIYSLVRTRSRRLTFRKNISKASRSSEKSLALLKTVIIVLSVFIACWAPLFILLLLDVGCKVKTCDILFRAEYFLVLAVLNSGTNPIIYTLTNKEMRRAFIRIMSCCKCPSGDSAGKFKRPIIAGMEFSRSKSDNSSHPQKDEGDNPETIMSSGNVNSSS
Method in brief: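 Membranes from RH7777 cells expressing human S1P1 (1.5 μg/well) precoupled 30 min on ice to WGA SPA beads in 20 mM HEPES pH 7.4, 10 mM MgCl2, 100 mM NaCl, with 10 μM GDP and 90 μg/ml saponin. [35S]-GTPγS 0.5 nM final added with compound; SPA signal read immediately.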

[2] = molecular target: T2, S1P1 (PathHunter CHO-K1 EDG1 β-Arrestin cell line) (Homo sapiens, UniProt P21453); assay: S1P-1 β-Arrestin recruitment assay; assay type: cell-based; conditions: CHO-K1 EDG1 β-Arrestin cells, chemi-luminescence
T2 construct: host or cells: PathHunter CHO-K1 EDG1 β-Arrestin cell line
T2 sequence (P21453 whole entry): as above
T2 sequence (P32121 whole entry partner): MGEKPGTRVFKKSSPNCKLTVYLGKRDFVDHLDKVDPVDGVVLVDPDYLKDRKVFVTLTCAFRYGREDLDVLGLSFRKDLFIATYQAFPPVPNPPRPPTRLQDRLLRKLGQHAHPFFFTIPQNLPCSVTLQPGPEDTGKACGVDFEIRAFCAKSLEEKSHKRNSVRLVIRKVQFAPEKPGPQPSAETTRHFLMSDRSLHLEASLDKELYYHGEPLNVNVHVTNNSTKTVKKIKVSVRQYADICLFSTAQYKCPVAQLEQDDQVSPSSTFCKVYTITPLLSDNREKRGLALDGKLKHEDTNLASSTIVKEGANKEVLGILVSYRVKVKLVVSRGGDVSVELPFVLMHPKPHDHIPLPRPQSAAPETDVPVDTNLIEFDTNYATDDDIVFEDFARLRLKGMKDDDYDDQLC
Method in brief: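 CHO-K1 cells expressing S1P1 and β-arrestin 2 fused to complementing β-galactosidase fragments, at 1×10^4 cells/well in pH 7.4 buffer with 0.1% BSA. Compound exposure 90 min at 37 °C then 15 min room temperature; chemiluminescent substrate added for 60 min before luminescence read.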

| Compound | pEC50 [1] | pEC50 [2] |
| --- | --- | --- |
| Cc1c(-c2noc(-c3ccc(OC(C)C)c(C#N)c3)n2)ccc2c1CCN(CC(=O)NC[C@H](C)O)CC2 [Example 148, 2-[7-(5-{3-cyano-4-[(1-methylethyl)oxy]phenyl}-1,2,4-oxadiazol-3-yl)-6-methyl-1,2,4,5-tetrahydro-3H-3-benzazepin-3-yl]-N-[(2S)-2-hydroxypropyl]acetamide] | ≥ 7.00 | ≥ 8.00 |
| Cc1c(-c2noc(-c3ccc(OC(C)C)c(C#N)c3)n2)ccc2c1CCN(C[C@H](O)CO)CC2 [Example 153, 5-(3-{3-[(2S)-2,3-dihydroxypropyl]-6-methyl-2,3,4,5-tetrahydro-1H-3-benzazepin-7-yl}-1,2,4-oxadiazol-5-yl)-2-[(1-methylethyl)oxy]benzonitrile hydrochloride] | ≥ 7.00 | ≥ 7.00 |
| Cc1c(-c2noc(-c3ccc(OC(C)C)c(C#N)c3)n2)ccc2c1CCN(C[C@@H](O)CO)CC2 [Example 154, 5-(3-{3-[(2R)-2,3-dihydroxypropyl]-6-methyl-2,3,4,5-tetrahydro-1H-3-benzazepin-7-yl}-1,2,4-oxadiazol-5-yl)-2-[(1-methylethyl)oxy]benzonitrile hydrochloride] | ≥ 7.00 | ≥ 7.00 |
| Cc1c(-c2noc(-c3ccc(OC(C)C)c(C#N)c3)n2)ccc2c1CCN(C(=O)CNCCO)CC2 [Example 155, 5-(3-{3-[N-(2-hydroxyethyl)glycyl]-6-methyl-2,3,4,5-tetrahydro-1H-3-benzazepin-7-yl}-1,2,4-oxadiazol-5-yl)-2-[(1-methylethyl)oxy]benzonitrile] | 9.00 | ≥ 8.00 |
| Cc1c(-c2noc(-c3ccc(OC(C)C)c(C#N)c3)n2)ccc2c1CCN(C(CO)CO)CC2 [Example 156, 5-(3-{3-[2-hydroxy-1-(hydroxymethyl)ethyl]-6-methyl-2,3,4,5-tetrahydro-1H-3-benzazepin-7-yl}-1,2,4-oxadiazol-5-yl)-2-[(1-methylethyl)oxy]benzonitrile hydrochloride] | ≥ 7.00 | ≥ 8.00 |
| Cc1c(-c2noc(-c3ccc(OC(C)C)c(C#N)c3)n2)ccc2c1CCN(CC(=O)N[C@@H](C)CO)CC2 [Example 158, 2-[7-(5-{3-cyano-4-[(1-methylethyl)oxy]phenyl}-1,2,4-oxadiazol-3-yl)-6-methyl-1,2,4,5-tetrahydro-3H-3-benzazepin-3-yl]-N-[(1S)-2-hydroxy-1-methylethyl]acetamide] | ≥ 7.00 | ≥ 8.00 |
| Cc1c(-c2noc(-c3ccc(OC(C)C)c(C#N)c3)n2)ccc2c1CCN(CC(=O)N[C@H](C)CO)CC2 [Example 159] | ≥ 7.00 | ≥ 8.00 |
| Cc1c(-c2noc(-c3ccc(OC(C)C)c(C#N)c3)n2)ccc2c1CCN(CC(=O)NC(CO)CO)CC2 [Example 186, 2-[7-(5-{3-cyano-4-[(1-methylethyl)oxy]phenyl}-1,2,4-oxadiazol-3-yl)-6-methyl-1,2,4,5-tetrahydro-3H-3-benzazepin-3-yl]-N-[2-hydroxy-1-(hydroxymethyl)ethyl]acetamide] | ≥ 7.00 | ≥ 8.00 |
| Cc1c(-c2noc(-c3ccc(OC(C)C)c(C#N)c3)n2)ccc2c1CCN(C(=O)CNCC(O)CO)CC2 (stereo not shown) [Example 187, 5-(3-{3-[N-(2,3-dihydroxypropyl)glycyl]-6-methyl-2,3,4,5-tetrahydro-1H-3-benzazepin-7-yl}-1,2,4-oxadiazol-5-yl)-2-[(1-methylethyl)oxy]benzonitrile] | ≥ 7.00 | ≥ 8.00 |
| Cc1c(-c2noc(-c3ccc(OC(C)C)c(C#N)c3)n2)ccc2c1CCN(C(=O)CNC(CO)CO)CC2 [Example 189, 5-[3-(3-{N-[2-hydroxy-1-(hydroxymethyl)ethyl]glycyl}-6-methyl-2,3,4,5-tetrahydro-1H-3-benzazepin-7-yl)-1,2,4-oxadiazol-5-yl]-2-[(1-methylethyl)oxy]benzonitrile] | ≥ 7.00 | ≥ 8.00 |
| CC(C)Oc1ccc(-c2nc(-c3ccc4c(c3)CCN(CC(=O)NC[C@H](O)CO)CC4)no2)cc1C#N [Example 194, 2-[7-(5-{3-cyano-4-[(1-methylethyl)oxy]phenyl}-1,2,4-oxadiazol-3-yl)-1,2,4,5-tetrahydro-3H-3-benzazepin-3-yl]-N-[(2S)-2,3-dihydroxypropyl]acetamide hydrochloride] | ≥ 7.00 | ≥ 8.00 |
| CC(C)Oc1ccc(-c2nc(-c3ccc4c(c3)CCN(CC(=O)NC(CO)CO)CC4)no2)cc1C#N [Example 195, 2-[7-(5-{3-cyano-4-[(1-methylethyl)oxy]phenyl}-1,2,4-oxadiazol-3-yl)-1,2,4,5-tetrahydro-3H-3-benzazepin-3-yl]-N-[2-hydroxy-1-(hydroxymethyl)ethyl]acetamide hydrochloride] | ≥ 7.00 | ≥ 8.00 |
| CC(C)Oc1ccc(-c2nc(-c3ccc4c(c3)CCN(C(=O)CNC[C@H](O)CO)CC4)no2)cc1C#N [Example 196, 5-[3-(3-{N-[(2S)-2,3-dihydroxypropyl]glycyl}-2,3,4,5-tetrahydro-1H-3-benzazepin-7-yl)-1,2,4-oxadiazol-5-yl]-2-[(1-methylethyl)oxy]benzonitrile hydrochloride] | ≥ 6.00 | ≥ 7.00 |
| CC(C)Oc1ccc(-c2nc(-c3ccc4c(c3)CCN(C(=O)CNC(CO)CO)CC4)no2)cc1C#N [Example 197, 5-[3-(3-{N-[2-hydroxy-1-(hydroxymethyl)ethyl]glycyl}-2,3,4,5-tetrahydro-1H-3-benzazepin-7-yl)-1,2,4-oxadiazol-5-yl]-2-[(1-methylethyl)oxy]benzonitrile hydrochloride] | ≥ 7.00 | ≥ 8.00 |
